Test results: US8017612B2, “Piperazine compound and use thereof as a HCV polymerase inhibitor” (priority 2006, dated 2011)

Assays:
[1] = target: T1, HCV polymerase (NS5B) type 1a (Hepatitis C virus genotype 1a, UniProt P26664); assay: Assay of enzyme (HCV polymerase) inhibitory activity, type 1a enzyme; format: biochemical, HCV type 1a (cloned from the blood of patients); details: HCV polymerase inhibitory activity IC50, 1a, type 1a enzyme
T1 construct: made in house; host or cells: Escherichia coli (by the 'similar method' of the 1b enzyme)
How it was run: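 Patient-derived type 1a NS5B (C-terminal 47-aa deletion, His-tagged, E. coli-expressed) at 1.5 μg/ml was reacted with 5 μg/ml 3′UTR-containing substrate RNA, 50 μM ATP/GTP/CTP, 2 μM UTP plus [3H]UTP, pH 7.5, 25° C for 60 min. TCA-precipitated RNA radioactivity was counted; IC50 from ± compound.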

[2] = target: T2, HCV polymerase (NS5B) type 1b (Hepatitis C virus genotype 1b, UniProt P26663); assay: Assay of enzyme (HCV polymerase) inhibitory activity, type 1b enzyme; format: biochemical, HCV BK strain (type 1b); details: HCV polymerase inhibitory activity IC50, 1b, type 1b enzyme
T2 construct: a region encoding NS5B (J Virol 1991 March, 65(3), 1105-13, 544 amino acids after deletion of 47 amino acids on the C-terminal); 6xHis (C); made in house; host or cells: Escherichia coli
How it was run: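 NS5B from HCV BK strain (type 1b), C-terminal 47 aa deleted, C-terminal His6-tagged, E. coli-expressed, 0.5 μg/ml, with ~450 nt substrate RNA carrying the 3′ UTR (polyU, 3′X) at 5 μg/ml. Incubation 60 min at 25 °C with 50 μM ATP/GTP/CTP, 2 μM UTP plus [3H]UTP, pH 7.5 Tris.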

| SMILES | IC50 [1] | IC50 [2] |
| --- | --- | --- |
| CCCc1ccc(CNC(=O)[C@H]2CN(c3nc(C)c(S(=O)(=O)NC(C)=O)s3)CCN2S(=O)(=O)c2ccc(OC(F)(F)F)cc2)cc1 [Example 832, (R)-4-(5-acetylsulfamoyl-4-methyl-thiazol-2-yl)-1-(4-trifluoromethoxy-benzenesulfonyl)-piperazine-2-carboxylic acid 4-propyl-benzylamide] | < 100 nM | < 100 nM |
| CCCc1ccc(CNC(=O)[C@H]2CN(C(=O)Nc3ccccc3OCc3ccccc3)CCN2S(=O)(=O)c2ccc(OC(F)(F)F)cc2)cc1 [Example 833, (R)-4-(4-trifluoromethoxy-benzenesulfonyl)-piperazine-1,3-dicarboxylic acid 1-[(2-benzyloxy-phenyl)-amide] 3-(4-propyl-benzylamide)] | > 1000 nM | > 1000 nM |
| CCCc1ccc(CNC(=O)[C@H]2CN(C(=O)Nc3ccccc3O)CCN2S(=O)(=O)c2ccc(OC(F)(F)F)cc2)cc1 [Example 834, (R)-4-(4-trifluoromethoxy-benzenesulfonyl)-piperazine-1,3-dicarboxylic acid 1-[(2-hydroxy-phenyl)-amide] 3-(4-propyl-benzylamide)] | 100 to 1000 nM | 100 to 1000 nM |
| O=C(NCc1ccc(OC(F)(F)F)cc1)[C@H]1CN(c2nc3cn[nH]c(=O)c3s2)CCN1S(=O)(=O)c1ccc([N+](=O)[O-])cc1 [Example 835, (R)-1-(4-nitro-benzenesulfonyl)-4-(7-oxo-6,7-dihydro-thiazolo[4,5-d]pyridazin-2-yl)-piperazine-2-carboxylic acid 4-trifluoromethoxy-benzylamide] | < 100 nM | < 100 nM |
| CCC(F)(F)c1ccc(CNC(=O)[C@H]2CN(c3cnc4cncc(C(=O)O)c4n3)CCN2S(=O)(=O)c2ccc(OC(F)(F)F)cc2)cc1 [Example 836, 2-[(R)-3-[4-(1,1-difluoro-propyl)-benzylcarbamoyl]-4-(4-trifluoromethoxy-benzenesulfonyl)-piperazin-1-yl]-pyrido[3,4-b]pyrazine-8-carboxylic acid] | < 100 nM | < 100 nM |
| CCCc1ccc(CNC(=O)[C@H]2CN(C(=O)Nc3ccccc3C(=O)OCc3ccccc3)CCN2S(=O)(=O)c2ccc(OC(F)(F)F)cc2)cc1 [Example 837, 2-{[(R)-3-(4-propyl-benzylcarbamoyl)-4-(4-trifluoromethoxy-benzenesulfonyl)-piperazine-1-carbonyl]-amino}-benzoic acid benzyl ester] | > 1000 nM | > 1000 nM |
| CCCc1ccc(CNC(=O)[C@H]2CN(C(=O)Nc3ccccc3C(=O)O)CCN2S(=O)(=O)c2ccc(OC(F)(F)F)cc2)cc1 [Example 838, 2-{[(R)-3-(4-propyl-benzylcarbamoyl)-4-(4-trifluoromethoxy-benzenesulfonyl)-piperazine-1-carbonyl]-amino}-benzoic acid] | > 1000 nM | > 1000 nM |
| Cc1n[nH]c(=O)c2sc(N3CCN(S(=O)(=O)c4ccc(OC(F)(F)F)cc4)[C@@H](C(=O)NCc4ccc(OC(F)(F)F)cc4)C3)nc12 [Example 839, (R)-4-(4-methyl-7-oxo-6,7-dihydro-thiazolo[4,5-d]pyridazin-2-yl)-1-(4-trifluoromethoxy-benzenesulfonyl)-piperazine-2-carboxylic acid 4-trifluoromethoxy-benzylamide] | < 100 nM | < 100 nM |
| CCC(C)(C)c1ccc(CNC(=O)[C@H]2CN(c3nc4cn[nH]c(=O)c4s3)CCN2S(=O)(=O)c2ccc(OC(F)(F)F)cc2)cc1 [Example 840, (R)-4-(7-oxo-6,7-dihydro-thiazolo[4,5-d]pyridazin-2-yl)-1-(4-trifluoromethoxy-benzenesulfonyl)-piperazine-2-carboxylic acid 4-(1,1-dimethyl-propyl)-benzylamide] | < 100 nM | < 100 nM |
| CCCCc1ccc(CNC(=O)[C@H]2CN(c3nc4cn[nH]c(=O)c4s3)CCN2S(=O)(=O)c2ccc(OC(F)(F)F)cc2)cc1 [Example 841, (R)-4-(7-oxo-6,7-dihydro-thiazolo[4,5-d]pyridazin-2-yl)-1-(4-trifluoromethoxy-benzenesulfonyl)-piperazine-2-carboxylic acid 4-butyl-benzylamide] | < 100 nM | < 100 nM |
| CCCc1ccc(CNC(=O)[C@H]2CN(c3cnc4cncc(C(=O)O)c4n3)CCN2S(=O)(=O)c2ccc(C(F)(F)F)cc2)cc1 [Example 842, 2-[(R)-3-(4-propyl-benzylcarbamoyl)-4-(4-trifluoromethyl-benzenesulfonyl)-piperazin-1-yl]-pyrido[3,4-b]pyrazine-8-carboxylic acid] | < 100 nM | < 100 nM |
| CCCc1ccc(CNC(=O)[C@H]2CN(c3cnc4cncc(C(=O)O)c4n3)CCN2S(=O)(=O)c2ccc([N+](=O)[O-])cc2)cc1 [Example 843, 2-[(R)-4-(4-nitro-benzenesulfonyl)-3-(4-propyl-benzylcarbamoyl)-piperazin-1-yl]-pyrido[3,4-b]pyrazine-8-carboxylic acid] | < 100 nM | < 100 nM |
| CCCc1ccc(CNC(=O)[C@H]2CN(c3cnc4cncc(C(=O)O)c4n3)CCN2S(=O)(=O)c2ccc(C(C)(C)C)cc2)cc1 [Example 844, 2-[(R)-4-(4-tert-butyl-benzenesulfonyl)-3-(4-propyl-benzylcarbamoyl)-piperazin-1-yl]-pyrido[3,4-b]pyrazine-8-carboxylic acid] | < 100 nM | < 100 nM |
| CCCc1ccc(CNC(=O)[C@H]2CN(c3cnc4cncc(C(=O)O)c4n3)CCN2S(=O)(=O)c2ccc(Cl)cc2)cc1 [Example 845, 2-[(R)-4-(4-chloro-benzenesulfonyl)-3-(4-propyl-benzylcarbamoyl)-piperazin-1-yl]-pyrido[3,4-b]pyrazine-8-carboxylic acid] | < 100 nM | < 100 nM |
| CCCc1ccc(CNC(=O)[C@H]2CN(c3nc(C)c(C(=O)C(=O)OCC)s3)CCN2S(=O)(=O)c2ccc(OC(F)(F)F)cc2)cc1 [Example 846, {4-methyl-2-[(R)-3-(4-propyl-benzylcarbamoyl)-4-(4-trifluoromethoxy-benzenesulfonyl)-piperazin-1-yl]-thiazol-5-yl}-oxo-acetic acid ethyl ester] | 100 to 1000 nM | < 100 nM |
| CCCc1ccc(CNC(=O)[C@H]2CN(c3nc(Cl)c(C(=O)O)s3)CCN2S(=O)(=O)c2ccc(OC(F)(F)F)cc2)cc1 [Example 847, 4-chloro-2-[(R)-3-(4-propyl-benzylcarbamoyl)-4-(4-trifluoromethoxy-benzenesulfonyl)-piperazin-1-yl]-thiazole-5-carboxylic acid] | < 100 nM | < 100 nM |
| CCCc1ccc(CNC(=O)[C@H]2CN(c3nc(C)c(C(=O)C(=O)O)s3)CCN2S(=O)(=O)c2ccc(OC(F)(F)F)cc2)cc1 [Example 848, {4-methyl-2-[(R)-3-(4-propyl-benzylcarbamoyl)-4-(4-trifluoromethoxy-benzenesulfonyl)-piperazin-1-yl]-thiazol-5-yl}-oxo-acetic acid] | < 100 nM | < 100 nM |
| O=C(NCC1CC1c1ccccc1)[C@H]1CN(c2cnc3cncnc3n2)CCN1S(=O)(=O)c1ccc(OC(F)(F)F)cc1 (stereo partly drawn) [Example 849, (R)-4-pteridin-7-yl-1-(4-trifluoromethoxy-benzenesulfonyl)-piperazine-2-carboxylic acid (2-phenyl-cyclopropylmethyl)-amide] | 100 to 1000 nM | < 100 nM |
| O=C(NCc1ccc(OC(F)(F)F)cc1)[C@H]1CN(c2nc3cn[nH]c(=O)c3s2)CCN1S(=O)(=O)c1ccc(Cl)s1 [Example 850, (R)-1-(5-chloro-thiophene-2-sulfonyl)-4-(7-oxo-6,7-dihydro-thiazolo[4,5-d]pyridazin-2-yl)-piperazine-2-carboxylic acid 4-trifluoromethoxy-benzylamide] | < 100 nM | < 100 nM |
| COCC(C)(C)c1ccc(CNC(=O)[C@H]2CN(c3nc4cn[nH]c(=O)c4s3)CCN2S(=O)(=O)c2ccc(OC(F)(F)F)cc2)cc1 [Example 851, (R)-4-(7-oxo-6,7-dihydro-thiazolo[4,5-d]pyridazin-2-yl)-1-(4-trifluoromethoxy-benzenesulfonyl)-piperazine-2-carboxylic acid 4-(2-methoxy-1,1-dimethyl-ethyl)-benzylamide] | < 100 nM | < 100 nM |
| CCNC(=O)c1cnc(N2CCN(S(=O)(=O)c3ccc(OC(F)(F)F)cc3)[C@@H](C(=O)NCc3ccc(OC(F)(F)F)cc3)C2)cn1 [Example 852, (R)-4-(4-trifluoromethoxy-benzenesulfonyl)-3,4,5,6-tetrahydro-2H-[1,2′]bipyrazinyl-3,5′-dicarboxylic acid 5′-ethylamide 3-(4-trifluoromethoxy-benzylamide)] | < 100 nM | < 100 nM |
| CC(C)(C)NC(=O)c1cnc(N2CCN(S(=O)(=O)c3ccc(OC(F)(F)F)cc3)[C@@H](C(=O)NCc3ccc(OC(F)(F)F)cc3)C2)cn1 [Example 853, (R)-4-(4-trifluoromethoxy-benzenesulfonyl)-3,4,5,6-tetrahydro-2H-[1,2′]bipyrazinyl-3,5′-dicarboxylic acid 5′-tert-butylamide 3-(4-trifluoromethoxy-benzylamide)] | > 1000 nM | 100 to 1000 nM |
